In patent publication US20240299406A1, “NEURONAL NICOTINIC ACETYLCHOLINE RECEPTOR PARTIAL AGONISTS AS THERAPEUTICS FOR CHRONIC TINNITUS” (Board of Trustees of Southern Illinois University, priority 2019, published 2024):
“Also recorded” adds a separate entry of the source.

Legend:
α4β2 nAChRs = α4β2 nAChRs (Homo sapiens, UniProt P17787+P43681); conditions: cited from earlier work; for affinity for β2-containing nAChRs: partial nAChR agonists
[1] = non-specific drug effects (cage observation, session lever pressing); assay type: in vivo, rats
Protocol: FIG. 10 illustrates the data for a non-specific effect. The non-specific effects appeared 10 to 15 min after treatment but were not present 1 hr after treatment, i.e., at the beginning of the test period.
(§1) Sterile normal saline was considered a pharmaceutically acceptable carrier, but other pharmaceutically acceptable carriers may also be used as a substitute. All animals, unexposed controls and sound-exposed, were drug treated and tested in parallel. […] Dose levels of 0.1, 0.5, and 1 mg/kg were tested for therapeutic effect, over a minimum of 3 consecutive days for each dose level. Washout periods of 1 to 5 weeks (5 test sessions per week) intervened between drug-testing, as required to recover pre-drug baseline tinnitus performance.
At 1 mg/kg. […] Within 10 min of drug treatment all animals assumed a prone resting position in their home cage, which lasted about 10 min. Afterward animals resumed normal cage activity, e.g., moving about, grooming, sniffing. […] This behavior was not observed in washout or saline (vehicle) sessions, nor was it observed in the remaining 15 animals. Mild sedation was indicated by a decrease in total bar pressing at 1.0 mg/kg (FIG. 10).

α3β4 nAChRs [2] = target: T1, α3β4 nAChRs (Homo sapiens, UniProt P30926+P32297); conditions: cited from earlier work
T1 sequence (P32297 32-505): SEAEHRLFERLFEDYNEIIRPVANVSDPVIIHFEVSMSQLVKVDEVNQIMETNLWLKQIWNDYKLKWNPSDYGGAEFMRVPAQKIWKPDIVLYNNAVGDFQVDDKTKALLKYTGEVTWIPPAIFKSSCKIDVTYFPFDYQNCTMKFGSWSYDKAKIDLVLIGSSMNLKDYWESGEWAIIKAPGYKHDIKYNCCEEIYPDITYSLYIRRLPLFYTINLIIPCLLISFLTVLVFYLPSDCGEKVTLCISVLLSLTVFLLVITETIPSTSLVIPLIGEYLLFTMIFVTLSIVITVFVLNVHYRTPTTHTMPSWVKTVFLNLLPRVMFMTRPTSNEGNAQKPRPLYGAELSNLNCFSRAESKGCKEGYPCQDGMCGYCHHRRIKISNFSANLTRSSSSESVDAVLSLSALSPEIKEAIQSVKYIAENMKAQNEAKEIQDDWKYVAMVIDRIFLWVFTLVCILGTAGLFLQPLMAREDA
T1 sequence (P30926 22-498): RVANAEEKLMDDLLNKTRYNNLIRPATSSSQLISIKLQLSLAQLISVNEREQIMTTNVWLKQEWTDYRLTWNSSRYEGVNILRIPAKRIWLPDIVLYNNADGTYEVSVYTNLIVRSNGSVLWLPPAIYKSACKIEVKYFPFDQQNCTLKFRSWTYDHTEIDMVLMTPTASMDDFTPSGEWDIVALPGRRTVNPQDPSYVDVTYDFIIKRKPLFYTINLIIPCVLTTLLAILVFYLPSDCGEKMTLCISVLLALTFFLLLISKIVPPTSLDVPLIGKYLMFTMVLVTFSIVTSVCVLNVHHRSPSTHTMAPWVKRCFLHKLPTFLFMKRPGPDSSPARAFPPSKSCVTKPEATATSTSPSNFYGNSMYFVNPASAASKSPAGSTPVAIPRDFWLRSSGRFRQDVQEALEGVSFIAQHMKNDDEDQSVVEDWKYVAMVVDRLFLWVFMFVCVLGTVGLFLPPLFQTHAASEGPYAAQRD

α7 nAChRs [3] = target: T2, α7 nAChRs (Homo sapiens, UniProt P36544); conditions: cited from earlier work
T2 sequence (P36544 23-502): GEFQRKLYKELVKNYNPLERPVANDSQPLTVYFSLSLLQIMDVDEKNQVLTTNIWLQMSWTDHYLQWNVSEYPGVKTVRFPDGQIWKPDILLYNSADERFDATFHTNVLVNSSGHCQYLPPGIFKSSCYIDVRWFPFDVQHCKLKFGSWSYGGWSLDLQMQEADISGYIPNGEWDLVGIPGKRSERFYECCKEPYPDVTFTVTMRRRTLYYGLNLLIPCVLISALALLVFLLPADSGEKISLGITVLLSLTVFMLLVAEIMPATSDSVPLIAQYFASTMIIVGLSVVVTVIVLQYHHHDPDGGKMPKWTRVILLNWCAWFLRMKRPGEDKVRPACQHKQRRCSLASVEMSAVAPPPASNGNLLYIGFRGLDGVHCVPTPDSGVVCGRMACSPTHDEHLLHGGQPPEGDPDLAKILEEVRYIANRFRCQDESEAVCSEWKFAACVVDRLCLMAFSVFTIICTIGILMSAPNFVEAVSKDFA

[4] = tested on: rats with behavioral evidence of tinnitus; assay: operant conditioned-suppression behavioral test for tinnitus (suppression ratio, 20 kHz test series); assay type: in vivo, Long Evans rats; conditions: for evidence of tinnitus: SC injection
Source text: Unilaterally sound-exposed animals were used to study the effects of sazetidine on tinnitus. Experiments used an established behavioral psychoacoustic test to determine whether sazetidine could ameliorate tinnitus in subjects (rats) with behavioral evidence of tinnitus. Three months following sound-exposure, animals with tinnitus show consistent difficulty identifying silence. Sounds of varying intensity/levels were presented to sound-exposed (tinnitus) and unexposed (non-tinnitus control) subjects. The animals' behavior, quantified as a suppression ratio, indicated their level of tinnitus. Greater suppression, i.e., a decrease in lever pressing, indicates the presence of tinnitus.
The present study examined the potential therapeutic effect of sazetidine and varenicline to ameliorate tinnitus in rats with behavioral evidence of tinnitus. For two decades, an operant-behavior model has been used to investigate tinnitus pathology. In this model, animals are taught to attend closely to their auditory sensations using a conditioned suppression procedure: Animals lever press for food pellets in the presence of low-level background sounds, randomly punctuated by sound-off (silence) periods. Sound-off (silence) lever pressing earns food pellets but leads to a mild foot shock at the conclusion of the sound off presentation. The animals are therefore conditioned to stop lever pressing when the external sound is off, i.e., conditioned suppression. In this paradigm, the animals are conditioned to attend to their sound environment, and when tones of different frequencies and levels/intensities are substituted for some of the sound-off periods, the attendant behavior can be used to derive psychometric functions indicative of tinnitus.
Sixteen, 96-day old Long Evans rats (Envigo, Indianapolis, IN, USA) were anesthetized with a 1.7 percent isoflurane/02 mixture, placed in a head holder. A Fostex speaker (FT17H, Akashima, Japan) was attached to a 2 cm length of flexible tubing positioned at the entrance of the right ear canal. Eight randomly selected rats were unilaterally exposed once to band-limited noise for 1 hr, with a peak level of 120 dB (SPL) centered at 16 kHz, falling to ambient levels at 8 kHz and 24 kHz. During sound-exposure, the contralateral canal was obstructed by a canal-fitted plastic plug/tube from the contralateral speaker. Auditory brainstem responses (ABRs), which measure hearing, were obtained before and after exposure for pure tones at 8, 10, 12, 16, 20, 24, and 32 kHz, presented in 10 dB decrements between 95 and 5 dB (SPL re […]). Eight unexposed animals were similarly tested. Tinnitus testing began 3 months following sound-exposure and hearing-level determination.
Sazetidine A dihydrochloride (batch 2A/187725) was obtained in solid form, from Tocris Bioscience (Minneapolis, MN, USA). The drug was dissolved in sterile normal saline at a concentration of 2 mg/ml, or less, and administered as a subcutaneous injection (SC) 1 hour prior to behavioral testing.
Varenicline, varenicline tartrate, was purchased from Santa Cruz Biotechnology, Inc. (Dallas, Texas, USA). The drug was dissolved in sterile normal saline at a concentration of 1 mg/ml, or less, and administered as a SC injection 1 hour prior to behavioral testing.
as §1
Prior to the start of drug testing, each group was optimized to five rats per group. […]

α7 nAChRs [5] = target: T2, α7 nAChRs; conditions: cited from earlier work; remark: listed apart in the source
[6] = tested on: rats with behavioral evidence of tinnitus; assay: operant conditioned-suppression behavioral test for tinnitus (suppression ratio, 20 kHz test series); assay type: in vivo, Long Evans rats; conditions: 0.5 mg/kg; 12 animals with tinnitus compared to 8 unexposed controls
α3β4 nAChRs [7] = target: T1, α3β4 nAChRs; conditions: at lower affinity; cited from earlier work

Chain of α4β2 nAChRs (P43681 29-627 limits assumed): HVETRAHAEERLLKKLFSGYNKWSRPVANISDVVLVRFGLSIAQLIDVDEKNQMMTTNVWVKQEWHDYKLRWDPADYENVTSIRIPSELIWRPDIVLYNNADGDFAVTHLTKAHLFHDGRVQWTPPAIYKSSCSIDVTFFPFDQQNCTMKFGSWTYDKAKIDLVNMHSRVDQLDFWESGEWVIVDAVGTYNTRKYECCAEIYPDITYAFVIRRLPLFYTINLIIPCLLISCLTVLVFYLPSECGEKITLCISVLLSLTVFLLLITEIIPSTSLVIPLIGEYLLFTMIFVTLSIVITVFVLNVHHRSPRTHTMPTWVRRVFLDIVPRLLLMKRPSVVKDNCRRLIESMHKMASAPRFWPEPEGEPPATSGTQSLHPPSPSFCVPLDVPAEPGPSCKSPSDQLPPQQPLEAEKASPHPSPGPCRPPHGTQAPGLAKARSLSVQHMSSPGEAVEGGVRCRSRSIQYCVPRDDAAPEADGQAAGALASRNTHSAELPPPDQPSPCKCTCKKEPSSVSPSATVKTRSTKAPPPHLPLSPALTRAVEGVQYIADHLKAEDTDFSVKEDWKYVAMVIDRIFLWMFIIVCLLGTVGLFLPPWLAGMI
Chain of α4β2 nAChRs (P17787 26-502): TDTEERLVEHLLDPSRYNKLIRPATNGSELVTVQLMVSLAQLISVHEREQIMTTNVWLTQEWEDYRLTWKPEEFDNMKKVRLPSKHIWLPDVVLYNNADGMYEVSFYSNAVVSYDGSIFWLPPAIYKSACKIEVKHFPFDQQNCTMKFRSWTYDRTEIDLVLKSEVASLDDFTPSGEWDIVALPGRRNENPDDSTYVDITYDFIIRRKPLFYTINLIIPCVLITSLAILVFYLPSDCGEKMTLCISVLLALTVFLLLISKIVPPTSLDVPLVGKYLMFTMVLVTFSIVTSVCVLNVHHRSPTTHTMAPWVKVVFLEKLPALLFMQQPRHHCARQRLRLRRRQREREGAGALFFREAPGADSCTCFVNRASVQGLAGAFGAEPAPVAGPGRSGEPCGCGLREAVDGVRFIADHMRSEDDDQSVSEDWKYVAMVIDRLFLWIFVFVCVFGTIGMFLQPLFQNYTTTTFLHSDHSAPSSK

OCCCCC#Cc1cncc(OC[C@@H]2CCN2)c1 [sazetidine]
concentration that desensitizes α4β2 nAChRs (α4β2 nAChRs): low nanomolar concentrations | affinity for β2-containing nAChRs (α4β2 nAChRs): very high affinity | sedation (decrease in total bar pressing) ([1]; 1.0 mg/kg, FIG. 10): Mild sedation | excess salivation, share of animals ([1]; 1.0 mg/kg, visual evidence): about a third of the animals | non-specific effects at the beginning of the test period ([1]; 1 hr after treatment, FIG. 10): not present | non-specific drug effects ([1]; FIG. 10): evident at 1 mg/kg | time of appearance of non-specific effects after treatment ([1]; FIG. 10): 10 to 15 min | time to prone resting position in home cage, all animals ([1]; after drug treatment): ≤ 10 min | sedation (decrease in session lever pressing) ([1]; higher doses, FIG. 10): some general sedation | duration of prone resting position ([1]; rat, in vivo): about 10 min | drug-dependent agitation, animals affected ([1]; sound-exposed animal without evidence of tinnitus): One animal (out of 16) | selectivity for α4β2 nAChRs compared to α3β4 nAChRs (α3β4 nAChRs [2]): > 20,000 fold | selectivity for α4β2 nAChRs relative to α7 nAChRs (α7 nAChRs [3]): 3,500 fold | therapeutic effect on tinnitus ([4]; 0.1 mg/kg SC, FIG. 9): potentially weak therapeutic effect | tinnitus dose-response (tinnitus suppression ratio) ([4]; 0.1 mg/kg to 1.0 mg/kg SC, FIG. 11): Therapeutic effect increased with dose; also recorded: effectiveness increases as the dose is increased | suppression curve of tinnitus animals versus unexposed control animals ([4]; 0.5 mg/kg SC, FIG. 8): no longer significantly different | suppression curve of tinnitus animals versus unexposed control animals ([4]; 1 mg/kg SC, first test, FIG. 2): no longer significantly different | suppression curve of tinnitus animals versus unexposed control animals ([4]; 1 mg/kg SC, second test (1st replication), FIG. 5): again no longer significantly different | therapeutic effect on tinnitus ([4]; 1 mg/kg SC, third test (2nd replication), one week after 1st replication, FIG. 6): No therapeutic effect was observed | evidence of tinnitus ([4]; 0.1 mg/kg): significantly reduced evidence of tinnitus | evidence of tinnitus ([4]; 0.5 mg/kg): effectively and significantly decreased evidence of tinnitus | evidence of tinnitus ([4]; 1 mg/kg): effectively and significantly decreased evidence of tinnitus | dose level at which statistical effectiveness begins ([4]; SC, FIG. 11): about 0.5 mg/kg | suppression curve of tinnitus animals versus unexposed control animals ([4]; five weeks following initial treatment, saline SC before test, FIG. 4): again statistically significantly different | suppression curve of tinnitus animals versus unexposed control animals ([4]; one week following initial treatment, washout, FIG. 3): remain similar to control | tinnitus-related symptoms/lever pressing ([4]; treatment 1 hour before testing): decreased tinnitus-related symptoms/lever pressing

c1cnc2cc3c(cc2n1)C1CNCC3C1 [varenicline, 7,8,9,10-tetrahydro-6,10-methano-6H-pyrazino[2,3-h][3]-benzazepine]
concentration that desensitizes α4β2 nAChRs (α4β2 nAChRs): low nanomolar concentrations | affinity for β2-containing nAChRs (α4β2 nAChRs): very high affinity | type of action at α7 nAChRs (α7 nAChRs [5]): full agonist activity | selectivity for α4β2 nAChRs compared to α3β4 nAChRs (α3β4 nAChRs [2]): 4,000-5,000 fold | reduction of evidence of tinnitus [6]: 47% | selectivity for α4β2 nAChRs relative to α7 nAChRs (α7 nAChRs [3]): 4,000-5,000 fold | suppression curve of tinnitus animals versus unexposed control animals ([4]; 0.5 mg/kg SC, FIG. 13): no longer significantly different | linearity of tinnitus reduction across doses ([4]; doses between 0.1 and 1.0 mg/kg): not-linear | type of action at α3β4 nAChRs (α3β4 nAChRs [7]): partial agonist actions
